Values quoted from earlier work as cited in patent US7956061B2, “Bicyclic pyrimidines as dipeptidyl peptidase-IV inhibitors for the treatment or prevention of diabetes” (Merck Sharp & Dohme Corp., priority 2005, dated 2011).
One block for each molecule: values may come before it.

How the values were obtained:
cardiac allograft = conditions: rats; Transplantation, 63: 1495-1500 (1997)
hematopoiesis = conditions: mouse, cyclophosphamide-induced neutropenia; WO 99/56753
DPP-IV = biological target: T1, DPP-IV (Homo sapiens, UniProt P27487); conditions: plasma
T1 construct: GRF is rapidly degraded in plasma to GRF[3-44]
T1 sequence (P27487 39-766 limits assumed, species assumed): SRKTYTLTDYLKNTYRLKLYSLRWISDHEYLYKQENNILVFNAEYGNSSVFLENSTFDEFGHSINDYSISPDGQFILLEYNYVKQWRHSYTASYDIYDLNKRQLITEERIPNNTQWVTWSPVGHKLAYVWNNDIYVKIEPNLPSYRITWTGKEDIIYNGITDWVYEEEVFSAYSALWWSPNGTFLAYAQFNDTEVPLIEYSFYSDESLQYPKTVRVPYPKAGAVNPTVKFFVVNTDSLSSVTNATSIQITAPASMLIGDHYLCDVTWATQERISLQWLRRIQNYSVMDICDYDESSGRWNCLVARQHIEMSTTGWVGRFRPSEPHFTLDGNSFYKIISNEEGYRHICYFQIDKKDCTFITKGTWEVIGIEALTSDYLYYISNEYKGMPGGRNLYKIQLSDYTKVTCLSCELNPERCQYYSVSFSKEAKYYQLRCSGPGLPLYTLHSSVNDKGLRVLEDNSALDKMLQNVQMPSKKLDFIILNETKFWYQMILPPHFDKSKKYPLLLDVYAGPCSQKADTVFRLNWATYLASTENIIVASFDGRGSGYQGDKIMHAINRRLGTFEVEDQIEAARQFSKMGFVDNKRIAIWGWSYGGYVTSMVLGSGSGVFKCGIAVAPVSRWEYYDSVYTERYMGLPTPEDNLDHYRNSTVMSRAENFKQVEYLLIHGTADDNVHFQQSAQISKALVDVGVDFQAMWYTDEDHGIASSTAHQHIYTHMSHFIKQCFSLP

Molecule: CC(C)N1CCC(c2ccccc2)(c2ccccc2)CC1 [Prodipine, Pro-Pro-diphenyl-phosphonate]
cardiac allograft survival (cardiac allograft): double cardiac allograft survival in rats from day 7 to day 14

Molecule: CC(C)[C@H](N)C(=O)N1CCC[C@H]1B(O)O [Val-Boro-Pro]
effect on hematopoiesis (hematopoiesis): stimulated hematopoiesis

effect on degradation of GRF to GRF[3-44] (DPP-IV): prevented
Molecule: diprotin A
